Results published in PubChem BioAssay (NCI).
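Each compound was tested at five concentrations against cells in 96-well plates for 48 hours. TGI denotes the concentration required for complete inhibition of growth.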

What was measured:
Assay in all cases: NCI tumour cell line growth inhibition, 48 h
HOP-92 NSCLC = system: HOP-92 NSCLC
NCI-H460 lung = system: NCI-H460 lung
P388/ADR leukemia = system: P388/ADR leukemia
KM20L2 colon = system: KM20L2 colon
HT29 colon = system: HT29 colon
UACC-62 melanoma = system: UACC-62 melanoma
XF 498 CNS = system: XF 498 CNS
HL-60(TB) leukemia = system: HL-60(TB) leukemia
EKVX NSCLC = system: EKVX NSCLC
SNB-75 CNS = system: SNB-75 CNS
LOX IMVI melanoma = system: LOX IMVI melanoma
NCI-H226 lung = system: NCI-H226 lung
M19-MEL melanoma = system: M19-MEL melanoma
MALME-3M melanoma = system: MALME-3M melanoma
MCF7 breast = system: MCF7 breast
SNB-19 CNS = system: SNB-19 CNS
RXF 393 renal = system: RXF 393 renal
HCC-2998 colon = system: HCC-2998 colon
HCT-15 colon = system: HCT-15 colon
SN12C renal = system: SN12C renal
SF-268 CNS = system: SF-268 CNS
U251 CNS = system: U251 CNS
P388 leukemia = system: P388 leukemia
SF-539 CNS = system: SF-539 CNS
NCI-H23 lung = system: NCI-H23 lung
SF-295 CNS = system: SF-295 CNS
A498 renal = system: A498 renal
OVCAR-5 ovarian = system: OVCAR-5 ovarian
SK-MEL-28 melanoma = system: SK-MEL-28 melanoma
SK-MEL-5 melanoma = system: SK-MEL-5 melanoma
OVCAR-3 ovarian = system: OVCAR-3 ovarian
KM12 colon = system: KM12 colon
CAKI-1 renal = system: CAKI-1 renal
IGROV1 ovarian = system: IGROV1 ovarian
OVCAR-8 ovarian = system: OVCAR-8 ovarian
CCRF-CEM leukemia = system: CCRF-CEM leukemia
A549 NSCLC = system: A549 NSCLC
HOP-62 NSCLC = system: HOP-62 NSCLC
K-562 leukemia = system: K-562 leukemia
COLO 205 colon = system: COLO 205 colon
UACC-257 melanoma = system: UACC-257 melanoma
SN12K1 renal = system: SN12K1 renal
NCI/ADR-RES ovarian = system: NCI/ADR-RES ovarian
UO-31 renal = system: UO-31 renal
HCT-116 colon = system: HCT-116 colon
SK-OV-3 ovarian = system: SK-OV-3 ovarian
DLD-1 colon = system: DLD-1 colon
SW-620 colon = system: SW-620 colon
SNB-78 CNS = system: SNB-78 CNS
DMS 273 small cell lung = system: DMS 273 small cell lung
RPMI-8226 leukemia = system: RPMI-8226 leukemia
MOLT-4 leukemia = system: MOLT-4 leukemia
SK-MEL-2 melanoma = system: SK-MEL-2 melanoma
OVCAR-4 ovarian = system: OVCAR-4 ovarian

## COc1ccc(OC)c(C#N)c1C#N (tested in a mixture with another compound)
HOP-92 NSCLC
  TGI: > 100 µM
NCI-H460 lung
  TGI: > 100 µM
P388/ADR leukemia
  TGI: > 100 µM
KM20L2 colon
  TGI: > 100 µM
HT29 colon
  TGI: > 100 µM
UACC-62 melanoma
  TGI: > 100 µM
XF 498 CNS
  TGI: > 100 µM
HL-60(TB) leukemia
  TGI: > 100 µM
EKVX NSCLC
  TGI: > 88 µM
SNB-75 CNS
  TGI: > 100 µM
LOX IMVI melanoma
  TGI: > 100 µM
NCI-H226 lung
  TGI: > 100 µM
M19-MEL melanoma
  TGI: > 100 µM
MALME-3M melanoma
  TGI: > 100 µM
MCF7 breast
  TGI: > 100 µM
SNB-19 CNS
  TGI: > 100 µM
RXF 393 renal
  TGI: > 100 µM
HCC-2998 colon
  TGI: > 100 µM
HCT-15 colon
  TGI: > 100 µM
SN12C renal
  TGI: > 100 µM
SF-268 CNS
  TGI: > 100 µM
U251 CNS
  TGI: > 100 µM
P388 leukemia
  TGI: > 100 µM
SF-539 CNS
  TGI: > 100 µM
NCI-H23 lung
  TGI: > 100 µM
SF-295 CNS
  TGI: > 100 µM
A498 renal
  TGI: > 100 µM
OVCAR-5 ovarian
  TGI: > 100 µM
SK-MEL-28 melanoma
  TGI: > 100 µM
SK-MEL-5 melanoma
  TGI: > 100 µM
OVCAR-3 ovarian
  TGI: > 100 µM
KM12 colon
  TGI: > 100 µM
CAKI-1 renal
  TGI: > 100 µM
IGROV1 ovarian
  TGI: > 100 µM
OVCAR-8 ovarian
  TGI: > 100 µM
CCRF-CEM leukemia
  TGI: > 100 µM
A549 NSCLC
  TGI: > 100 µM
HOP-62 NSCLC
  TGI: > 100 µM
K-562 leukemia
  TGI: > 100 µM
COLO 205 colon
  TGI: > 100 µM
UACC-257 melanoma
  TGI: > 100 µM
SN12K1 renal
  TGI: > 100 µM
NCI/ADR-RES ovarian
  TGI: > 100 µM
UO-31 renal
  TGI: > 100 µM
HCT-116 colon
  TGI: > 100 µM
SK-OV-3 ovarian
  TGI: > 100 µM
DLD-1 colon
  TGI: > 100 µM
SW-620 colon
  TGI: > 100 µM
SNB-78 CNS
  TGI: > 100 µM
DMS 273 small cell lung
  TGI: > 100 µM
RPMI-8226 leukemia
  TGI: > 100 µM
MOLT-4 leukemia
  TGI: > 100 µM
SK-MEL-2 melanoma
  TGI: > 100 µM
OVCAR-4 ovarian
  TGI: > 100 µM
